Experimental data from patent US20220008391A1, “NOVEL COMPOUNDS FOR CONTROLLING ARTHROPODS” (Bayer Animal Health GmbH, priority 2018, published 2022).
Where two headings read alike, the source gives them in different places.

Assays:
[1] = system: Amblyomma americanum; assay: Antiparasitic activity after administration to dogs, A. americanum ticks; assay type: in vivo; conditions: AA
Experimental: (§1) Measurement of the Antiparasitic Activity after Administration of a Prodrug to Dogs
(§2) Compounds were dissolved in the appropriate volume of glycerol formal (p.a.) just before application to the animals (dose volume was adjusted to 0.1 ml/kg bodyweight). Dogs were injected intravenously respective subcutaneously (see table 8 for details).
(§3) Dogs were infested with ectoparasites according to table on study 1 day prior to counting for fleas, 2 days prior to counting for RS, IR, DV ticks and 3 days prior to counting for AA ticks. For this purpose, dogs were placed in an individually labeled box with grid windows. The ticks were released onto the back of the dogs and were allowed to disperse and move into the hair without disturbance. The dog remained in the box for approximately 120 minutes with the lid closed and the light switched off in the room. For flea infestations, flea containers were opened in the animal's cage and fleas were applied on the dog's back between the shoulders.
(§4) Tick counts including removal of I. ricinus, R. sanguineus and D. variabilis were conducted 48(±4) hours after the infestation. Tick counts including removal of A. americanum were conducted 72(±4) hours after the infestation. Flea counts were conducted 24(±4) hours after the infestation.
(§5) On each parasite assessment day percent efficacy was calculated as arithmetic mean parasite numbers as life attached and live free tick numbers and live flea numbers of the respective study group in comparison to parasite counts on a placebo non-treated control group.

[2] = Evaluation of pharmacokinetics (in vivo), rat; conditions: concentration of parent compound A
Experimental: Evaluation of Pharmacokinetics (In Vivo) To evaluate the pharmacokinetics of test substances in vivo, these test substances are dissolved in appropriate formulation vehicles (ethanol, dimethyl sulfoxide, PEG400, glycerol formal etc.), or mixtures thereof. The test substances are then administered to rats or dogs intravenously, orally or subcutaneously. The intravenous application is performed as bolus. Administered doses range usually between 0.1 to 5 mg/kg, however, doses for subcutaneous and oral administration can exceed this range up to doses of 30 mg/kg. Blood samples are retrieved via a catheter, exsanguination or venous puncture in vials containing appropriate anticoagulants, such as lithium heparinate or potassium EDTA. Plasma is generated from the blood via centrifugation. Blood samples are taken over an appropriate time interval, usually lasting up to 144h after administration. If necessary, samples from later time points can also be taken. If possible, time points are chosen so that the initial absorption phase, the maximum plasma concentration (Cmax), and exposure within a certain time interval (AUC(0-t)) are described. Furthermore, it is possible to also retrieve organ-, tissue- and urine samples. The quantitative measurement of the test substances in the samples is performed using calibration curves in the respective matrices. The protein content of the samples is precipitated using acetonitrile or methanol. Thereafter, the samples are separated using HPLC in combination with reversed phase chromatography columns. The HPLC system is coupled to a triple quadrupole mass spectrometer via an electrospray interface. The evaluation of the plasma concentration/time profiles are afterwards evaluated using a validated pharmacokinetics evaluation program. […] Relative bioavailability (Frel) was used to describe the exposure of parent after prodrug administration compared to the exposure of parent after direct administration of compound A which was normalised to 100%.

[3] = Evaluation of pharmacokinetics (in vivo), dog; conditions: concentration of parent compound A
Experimental: Evaluation of Pharmacokinetics (In Vivo) To evaluate the pharmacokinetics of test substances in vivo, these test substances are dissolved in appropriate formulation vehicles (ethanol, dimethyl sulfoxide, PEG400, glycerol formal etc.), or mixtures thereof. The test substances are then administered to rats or dogs intravenously, orally or subcutaneously. The intravenous application is performed as bolus. Administered doses range usually between 0.1 to 5 mg/kg, however, doses for subcutaneous and oral administration can exceed this range up to doses of 30 mg/kg. Blood samples are retrieved via a catheter, exsanguination or venous puncture in vials containing appropriate anticoagulants, such as lithium heparinate or potassium EDTA. Plasma is generated from the blood via centrifugation. Blood samples are taken over an appropriate time interval, usually lasting up to 144h after administration. If necessary, samples from later time points can also be taken. […] The quantitative measurement of the test substances in the samples is performed using calibration curves in the respective matrices. […] The evaluation of the plasma concentration/time profiles are afterwards evaluated using a validated pharmacokinetics evaluation program. […]

[4] = system: Ctenocephalides felis; assay: Antiparasitic activity after administration to dogs, fleas; assay type: in vivo; conditions: iv, 2 × 5 mg/kg, CF
Experimental: as §1, §2, §3, §4, §5

[5] = system: Dermacentor variabilis; assay: Antiparasitic activity after administration to rats, tick nymphs; assay type: in vivo; conditions: Dermacentor variabilis, ip, 10 mg/kg, DV N
Experimental: (§6) Measurement of the Antiparasitic Activity after Administration of a Prodrug to Rats Compounds were dissolved in the appropriate volume of glycerol formal (p.a.) just before application to the animals (dose volume was adjusted to 0.03 mL/kg bodyweight). 5 rats per group were either injected intraperitoneally or subcutaneously. Rats were infested with 30 Dermacentor variabilis nymphs on study days −2, 7, 14, 21, 28, 35 and 30 adult Ctenocephalides fleas on study days −1, 8, 15, 22, 29, 36. […] Percent efficacy was calculated as arithmetic mean parasite numbers as life attached tick numbers and live flea numbers of the respective study group in comparison to parasite counts on a placebo-treated control group. Infestation of groups with less than 75% efficacy on two consecutive counting occasions will terminated for the respective parasite.

[6] = system: Ctenocephalides felis; assay: Antiparasitic activity after administration to rats, fleas; assay type: in vivo; conditions: Ctenocephalides felis, ip, 10 mg/kg, CF A
Experimental: as §6

[7] = system: Rhipicephalus sanguineus; assay: Antiparasitic activity after administration to dogs, R. sanguineus ticks; assay type: in vivo; conditions: RS
Experimental: as §1, §2, §3, §4, §5

[8] = system: Ixodes ricinus; assay: Antiparasitic activity after administration to dogs, I. ricinus ticks; assay type: in vivo; conditions: IR
Experimental: as §1, §2, §3, §4, §5

[9] = system: Dermacentor variabilis; assay: Antiparasitic activity after administration to dogs, D. variabilis ticks; assay type: in vivo; conditions: DV
Experimental: as §1, §2, §3, §4, §5

[10] = iv bolus of the named substance
[11] = sc administration of the named substance
[12] = 48 h, study day 2, read-out: Efficacy SD2
[13] = 216 h, study day 9, read-out: Efficacy SD9
[14] = 384 h, study day 16, read-out: Efficacy SD16
[15] = iv, 2 × 5 mg/kg, study 1, month 1
[16] = iv, 2 × 5 mg/kg, study 1, month 2
[17] = iv, 2 × 5 mg/kg, study 1, month 3
[18] = iv, 2 × 5 mg/kg, study 1, month 4
[19] = iv, 2 × 5 mg/kg, study 1, month 5
[20] = iv, 2 × 5 mg/kg, study 1, month 6

## N#CC1(NC(=O)c2cc(-c3cnn(-c4c(Cl)cc(C(F)(C(F)(F)F)C(F)(F)F)cc4OC(F)(F)F)c3)ccc2Cl)CC1 [Parent Compound A, 2-Chlor-5-{1-[2-chlor-4-(1,1,1,2,3,3,3-heptafluorpropan-2-yl)-6-(trifluormethoxy)phenyl]-1H-pyrazol-4-yl}-N-(1-cyanocyclopropyl)benzamide]
[1]; iv, 2 × 5 mg/kg, study 2, month 1
  % Efficacy in study month 1: 100%
[1]; iv, 2 × 5 mg/kg, study 2, month 2
  % Efficacy in study month 2: 99%
[1]; iv, 2 × 5 mg/kg, study 2, month 3
  % Efficacy in study month 3: 99%
[1]; iv, 2 × 5 mg/kg, study 2, month 4
  % Efficacy in study month 4: 99%
[1]; iv, 2 × 5 mg/kg, study 2, month 5
  % Efficacy in study month 5: 95%
[1]; iv, 2 × 5 mg/kg, study 2, month 6
  % Efficacy in study month 6: 98%
[1]; sc, 5 mg/kg, study 3, month 6
  % Efficacy in study month 6: 90%
[2]; [10]
  AUC(0-144 h)norm of parent compound A: 11 kg·h/L
[2]; po, 20 mg/kg
  AUC(0-24)norm of parent compound A: 0.37 kg·h/L
[2]; [11]
  AUC(0-144 h)norm of parent compound A: 1.7 kg·h/L
[3]; [10]
  AUC(0-72 h)norm of parent compound A: 6.0 kg·h/L
[3]; [11]
  AUC(0-384 h)norm of parent compound A: 1.0 kg·h/L
[4]; study 1, month 1
  % Efficacy in study month 1: 100%
[4]; study 1, month 2
  % Efficacy in study month 2: 100%
[4]; study 1, month 3
  % Efficacy in study month 3: 100%
[4]; study 1, month 4
  % Efficacy in study month 4: 100%
[4]; study 1, month 5
  % Efficacy in study month 5: 100%
[4]; study 1, month 6
  % Efficacy in study month 6: 100%
[5]; [12]
  inhibition in vivo at 10 mg/kg: 96%
[5]; [13]
  inhibition in vivo at 10 mg/kg: 87%
[5]; [14]
  inhibition in vivo at 10 mg/kg: 83%
[5]; 552 h, study day 23, read-out: Efficacy SD23
  inhibition in vivo at 10 mg/kg: 93%
[5]; 720 h, study day 30, read-out: Efficacy SD30
  inhibition in vivo at 10 mg/kg: 53%
[5]; 888 h, study day 37, read-out: Efficacy SD37
  inhibition in vivo at 10 mg/kg: 32%
[6]; [12]
  pest or weed control at 10 mg/kg: 84%
[6]; [13]
  pest or weed control at 10 mg/kg: 68%
[6]; [14]
  pest or weed control at 10 mg/kg: 71%
[7]; [15]
  % Efficacy in study month 1: 100%
[7]; [16]
  % Efficacy in study month 2: 100%
[7]; [17]
  % Efficacy in study month 3: 100%
[7]; [18]
  % Efficacy in study month 4: 100%
[7]; [19]
  % Efficacy in study month 5: 100%
[7]; [20]
  % Efficacy in study month 6: 99%
[7]; sc, 5 mg/kg, study 3, month 6
  % Efficacy in study month 6: 50%
[8]; [15]
  % Efficacy in study month 1: 100%
[8]; [16]
  % Efficacy in study month 2: 100%
[8]; [17]
  % Efficacy in study month 3: 100%
[8]; [18]
  % Efficacy in study month 4: 100%
[8]; [19]
  % Efficacy in study month 5: 98%
[8]; [20]
  % Efficacy in study month 6: 98%
[8]; sc, 5 mg/kg, study 3, month 6
  % Efficacy in study month 6: 3%
[9]; [15]
  % Efficacy in study month 1: 98%
[9]; [16]
  % Efficacy in study month 2: 99%
[9]; [17]
  % Efficacy in study month 3: 100%
[9]; [18]
  % Efficacy in study month 4: 95%
[9]; [19]
  % Efficacy in study month 5: 98%
[9]; [20]
  % Efficacy in study month 6: 84%
[9]; sc, 5 mg/kg, study 3, month 6
  % Efficacy in study month 6: 19%
